Experimental data as given in article PMC12362618, “Development of the First Small-Molecule Inhibitor Targeting Oncostatin M for Treatment of Breast Cancer” (Journal of Medicinal Chemistry, 2025).
Entries after “also recorded” stand apart in the source; their conditions may differ. Read-outs that look alike come from different tables or passages of the source.

Legend:
[1] = Aqueous solubility (comparison in words); assay type: physicochemical; details: compared to other analogs
[2] = system: OSM-mediated signaling (pSTAT3, pAKT, pJNK, pERK) in T47D cells; assay: Immunoblot of OSM-mediated signaling in T47D cells; assay type: cell-based, human; details: SMI 10 μM, OSM 10 ng/mL, 30 min
Procedure: For immunoblot analysis, T47D breast cancer cells were treated and collected in the same manner as described above for the ELISA preparation. After lysate collection, samples were run on a 10% SDS-PAGE gel and transferred to a nitrocellulose membrane via semidry transfer. Blots were rinsed with DI H2O and allowed to completely dry at room temperature before blocking with LiCor Intercept PBS Blocking Buffer (LiCor, Lincoln, NE; Cat# 927-90001) for 1 h. After blocking, primary antibodies (1:1000) suspended in blocking buffer supplemented with 0.1% Tween were added, shaken at room temperature for 1 h, and stored at 4 °C overnight. Membranes were then washed 6 times for 5 minutes each with 1X PBS supplemented with 0.5% Tween while shaking at room temperature, and secondary antibodies (1:15,000) were applied and incubated for 1 h. Afterward, membranes were washed as previously described above and imaged at 700 nm using the LiCor Odyssey CLx Imaging System. Quantification of immunoblots was performed using the LiCor Image Studio software, normalizing to β-Actin, and calculating relative fold change compared to nontreated samples. Antibodies used included phospho-STAT3 (Y705) (Cell Signaling Technology, Danvers, MA; cat. no. 9145), phospho-AKT (S473) (Cell Signaling Technology, Danvers, MA; cat. no. 4060), phospho-JNK ([…]/[…]) (Cell Signaling Technology, Danvers, MA; cat. no. 4668), phospho-ERK (T202/Y204) (Cell Signaling Technology, Danvers, MA; cat. no. 9101), β-Actin (Cell Signaling Technology; cat. no. 3700), and donkey antirabbit IRDye 800CW (LiCor, Lincoln, NE; Cat# 925-32213).

[3] = system: OSM-mediated STAT3 phosphorylation in MCF-7 cells; assay: pSTAT3 ELISA in MCF-7 cells treated with OSM ± SMI; assay type: cell-based; details: Homo sapiens, MCF7
Procedure: For phospho-STAT3 (pSTAT3) ELISAs, T47D MDA-MB-231, and MCF-7 cells were seeded in 12- or 24-well plates at 70–75% confluency and allowed to adhere overnight, after which cells were serum-starved with serum-free RPMI-1640 for 4 h. SMIs (10 μM in DMSO or serially diluted to specified concentrations from a 100 mM stock in DMSO) and human recombinant OSM (10 ng/mL; PeproTech; #300–10T-10UG) were incubated in serum-free RPMI-1640 medium for 1 h. After incubation, the SMI-10 analogs or SMI-10B13 and OSM were added to the serum-starved cells for 30 min. Immediately afterward, the cells were lysed using 1x PathScan Sandwich ELISA Lysis Buffer (Cell Signaling Technology; #7018S), collected, and stored at −20 °C. Lysates were analyzed for pSTAT3 levels using either the PathScan Phospho-STAT3 (Tyr705) Sandwich ELISA Antibody Pair kit (Cell Signaling Technology; #7146) or Human/Mouse Phospho-STAT3 (Y705) DuoSet IC ELISA (R&D Systems; DYC4607B), according to manufacture’s protocol. pSTAT3 expression was measured with absorbance at 450 nm and quantified by comparison relative to OSM-induced pSTAT3 levels. To calculate an IC50 for SMI-10B13, a standard curve was generated as described in the DuoSet IC ELISA datasheet to determine the concentration of pSTAT3.

[4] = system: MCF-7-luc-OSM-overexpressing breast tumor cells; assay: ER+ orthotopic xenograft, survival and metastasis over 50 days; assay type: in vivo, athymic nu/nu mice
Procedure: To evaluate the effectiveness of SMI-10B13 against survivability and metastasis, we performed a related but separate experiment. As before, mice were treated with either vehicle or SMI-10B13 12 h prior to tumor cell injection and monitored for tumor growth while receiving treatment 3x weekly (Figure A). […] After 50 days, all mice were sacrificed, and metastases were evaluated with ex vivo imaging. […] Thus, for the first time, we have shown that an anti-OSM small molecule inhibitor may inhibit breast cancer progression and metastasis.
Seven- to eight-week-old athymic nu/nu mice were purchased from Jackson Laboratory and quarantined for 6 days. Twelve hours before tumor cell injection, the mice were grouped and injected intraperitoneally (i.p.) with 50 mg/kg of SMI-10B13 or vehicle (10% DMSO, 10% EtOH, 20% Cremophor EL, 60% propylene glycol; diluted in half with PBS). The following morning, MCF-7-Luc-flOSM cells (described above) were grown to 70–75% confluency, and the cells were concentrated to 4.0 × 10^7 cells/mL in PBS containing serum-free RPMI-1640. A 50 μL cell suspension was injected into the fourth mammary fat pad, resulting in 2.0 × 10^6 cells/injection. Mice were then injected (via i.p.) 3x weekly with SMI-10B13 or the vehicle control. Mice were also injected 1x weekly with D-luciferin (PerkinElmer; 122799–5) for bioluminescence detection for a period of 40–50 days, and 3x weekly for tumor growth via caliper measurement. Animals were sacrificed, and their serum and tumors were collected for analysis. Organs were harvested, and ex vivo imaging was performed to evaluate metastasis. All in vivo and ex vivo imaging was performed as previously described. All animal experiments were performed following the protocols evaluated and approved by the Boise State University Institutional Animal Care and Use Committee (IACUC) (Ethics Approval Number: AC23-043).

[5] = biological target: T1, gp130 binding to immobilized OSM (Homo sapiens, UniProt P13725); assay: SPR surface competition binding assay between gp130 and SMI for immobilized OSM; details: gp130 50 nM
T1 construct: purchased R&D Systems 671-GP
T1 sequence (P13725 26-212 limits assumed): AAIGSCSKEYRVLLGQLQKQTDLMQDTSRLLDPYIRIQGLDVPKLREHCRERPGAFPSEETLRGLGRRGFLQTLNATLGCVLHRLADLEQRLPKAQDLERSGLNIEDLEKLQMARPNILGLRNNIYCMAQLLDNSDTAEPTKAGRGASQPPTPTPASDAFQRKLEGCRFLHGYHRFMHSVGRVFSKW
Procedure: SPR experiments were performed on a Reichert SR7000 instrument that was fed by a Surveyor LC autosampler and pump. All experiments were conducted at 25 °C. In all experiments, OSM (∼24 kDa; as previously described) was immobilized to the surface of a PEF-10% carboxyl mixed self-assembled monolayer gold sensor chip (Reichert part #13206061), and the experiments were completed within 3 days. The immobilization phase was conducted using sterile-filtered, fresh 10 mM acetate buffer, pH 5, at a flow rate of 15 μL/min. The chip was first washed with 100 μL of 2 M NaCl in DI water and 100 μL of 10 mM NaOH in DI water. The chip was activated with a 100 μL injection of 10 mg/mL N-hydroxysuccinimide (NHS) and 40 mg/mL 1-ethyl-3-(3-dimethylaminopropyl)­carbodiimide (EDC) mixed in 1 mL of nanopure water immediately before injecting. Then, a 200 μg/mL solution of OSM (100–300 μL) in acetate buffer was diluted and injected multiple times with 100 μL injections to achieve a response of about 600–1000 RU. The remaining reactive NHS groups were then deactivated with a 100 μL injection of 1 M ethanolamine hydrochloride in DI H2O. […] The real-time changes in refractive index units of the association and dissociation phases were monitored. […]

SMILES: O=C(O)/C=C/c1cc(-c2ccc3c(c2)OCO3)c(-c2ccc3c(c2)OCO3)o1 [SMI-10B, (E)-3-(4,5-Bis(benzo[d][1,3]dioxol-5-yl)furan-2-yl)acrylic acid]
- Aqueous solubility [1]: increased aqueous solubility compared to other analogs
- Inhibition of OSM-mediated signaling cascades by immunoblot (words) [2]: significant reductions, near nontreated levels
- Inhibition of OSM-mediated signaling cascades by immunoblot (words) ([2]; listed as 10B): capable of inhibiting multiple cascades

SMILES: O=C(O)/C=C/c1cc(-c2ccc3cc[nH]c3c2)c(-c2ccc3cc[nH]c3c2)o1 [SMI-10B13, (E)-3-(4,5-di(1H-Indol-6-yl)furan-2-yl)acrylic Acid]
- IC50 ([3]; Figure S3 graph B (MCF-7 by order), four parameter nonlinear regression, given as negative log value, read-out: LogIC50 (graph B) (converted)): 164 nM
- IC50 ([3]; MCF-7 cells, ELISA, read-out: IC50 for inhibition of STAT3 phosphorylation): 164 nM
- Survival (Kaplan-Meier) vs vehicle ([4]; 50 mg/kg i.p. 3x weekly, 50 days, p = 0.04): improved survival; also recorded: prolonged survival; also recorded: increase survival
- Lung metastases fluorescent intensity (ex vivo imaging) ([4]; 50 mg/kg i.p. 3x weekly, after 50 days): 41.9 × 10^5 intensity
- Tumor size vs vehicle ([4]; 50 days experiment, end point): overall smaller tumors
- Lung metastasis intensity vs vehicle ([4]; ex vivo imaging, 50 days): reduction in intensity was not statistically significant; also recorded: trend toward significance in decreasing lung metastasis intensity
- Inhibition of gp130 binding to immobilized OSM ([5]; SMI 100 μM): almost completely inhibited
- IC50 ([5]; SPR surface competition, estimated, read-out: estimated IC50 for inhibition of gp130 binding to immobilized OSM): 30000 to 100000 nM
- Inhibition of OSM-mediated signaling cascades by immunoblot (words) [2]: most effective; also recorded: better at inhibiting pSTAT3, pAKT, pJNK, and pERK signaling
